In patent US20130165368A1, “ANTIMICROBIAL COMPOUNDS” (priority 2010, published 2013):
Values after ≈ are worked out from the molar mass of the structure shown. Where two headings read alike, the source gives them in different places.

How the values were obtained:
Format in all cases: cell-based
[1] = tested on: Enterococcus casseliflavus (VRE) Clin waste; assay: MIC agar dilution, VRE strain 23
Method: (§1) Molar equivalent concentrations were used to allow comparison between compounds of differing molecular mass. Due to weighing difficulties, any compound in solid form was melted in a water bath prior to dilution. To make ten-times strength concentrations, which takes into account agar dilution, 0.0352 mmol of each compound was weighed into plastic universal bottles and 4 mL of sterile distilled water (SDW) was added. To produce a homogenous emulsion the universals were vortexed; once achieved the emulsions were serial diluted by adding 2 mL to 2 mL of SDW.
(§2) For every 100 mL of Isosensitest agar (IST) (CM0471; Oxoid, Basingstoke, England), 3.1 g of the IST powder was added to 100 mL SDW (as per manufacturer's instructions) and sterilised for 15 minutes at 121° C. Once sterilised, the molten agar was cooled to 50° C. in a water-bath. Subsequently 4.8 g of CCEY powder (BC2160; Bioconnections, Wetherby, England), also known as Brazier's medium, was added to 100 mL SDW for every 100 mL of agar needed. This was then sterilised for 15 minutes at 121° C. Once sterilised the molten agar was cooled to 50° C. in a water-bath and 4 mL of egg-yolk emulsion (S2073; TCS Biosciences Ltd, Buckingham, United Kingdom) and 1 mL of lysed defibrinated horse blood (HB035; TCS Biosciences Ltd, Buckingham, United Kingdom) were also added for every 100 mL needed. Horse blood lysis is achieved by dilution to half concentration with SDW; when fully lysed the mixture will turn dark red in colour.
(§3) 18 mL agar was added to each universal and then poured into sterile Petri dishes. This step creates a 1/10 dilution resulting in agar plates of the required strength. Control plates for each set of strains were created by adding 18 mL of agar to 2 mL of SDW.
(§4) Suspensions of each bacterial species were prepared with a density equal to that of a 0.5 McFarland standard using a densitometer. All suspensions were made using sterile distilled water and fresh 18-20 hour cultures. As a 0.5 McFarland standard contains 1.5×10^8 CFU/mL and the multipoint inoculators applies 1 μL spots of liquid, each bacterial suspension was diluted 1/15 (20 μL suspension to 280 μL sterile distilled water).
(§5) Bacterial suspensions were prepared from fresh 18-24 hour cultures as previously described. 1 μL of each strain was inoculated onto all 100 agar plates containing a different chemical concentration and the 2 control plates. This was done using a multipoint inoculator which inoculates 20 strains per plate. All plates were incubated for 22 hours at 37° C. in aerobic conditions.
(§6) Each plate was examined for bacterial growth after 22 and 48 hours, with each being incubated in between examinations. A positive result was recorded as growth of ≧10 colonies. A negative result was recorded as growth of <10 colonies as this is equivalent to 99.9% inhibition. The lowest concentration of chemical that inhibited growth was recorded as the MIC. The results are recorded in Table IV below, where the numbers are quoted in mmol/L.
(§7) Given the positive performance of the ethoxylates of lauryl alcohol in reducing the MIC for a number of the micro-organisms tested, further MIC testing of Laureth-1 [C12E1] through to Laureth-8 [C12E8] was conducted on each of the following: • 10 strains of vancomycin-resistant enterococci (VRE)—listed in Table V below; and • 20 strains of methicillin-resistant Staphylococcus aureus (MRSA)—listed in Table VI.
(§8) The alkanol, alkanol derivatives, agar plates, and inocula were all prepared in the same way as described above.
(§9) The plates were examined in the same manner as described above and the results are recorded in Table VII below, where the numbers are quoted in mmol/L.

Providencia rettgeri = assay: MIC agar dilution, micro-organism 3 (7475); conditions: Providencia rettgeri 7475, read-out: MIC
Method in brief: (§10)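 Agar dilution in Isosensitest/CCEY agar with egg yolk and lysed horse blood; compounds as aqueous emulsions (myristyl and lauryl alcohol with 1-methyl-2-pyrrolidone and Tween 20). 1 µL spots of 1/15-diluted 0.5 McFarland suspensions, 37 °C aerobic, read at 22 and 48 h; MIC (mmol/L) is lowest concentration giving <10 colonies.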

Enterococcus faecalis = assay: MIC agar dilution, micro-organism 17 (775); conditions: Enterococcus faecalis 775, read-out: MIC
Method in brief: as §10

MRSA EMRSA 16 03732/95 = assay: MIC agar dilution, MRSA strain 45; conditions: Staphylococcus aureus
Method: as §1, §2, §3, §4, §5, §6, §7, §8, §9

[2] = tested on: Enterococcus faecium (VRE) 12185 Clin waste; assay: MIC agar dilution, VRE strain 24
Method: as §1, §2, §3, §4, §5, §6, §7, §8, §9

Steptococcus pyogenes = assay: MIC agar dilution, micro-organism 11 (8306); conditions: Steptococcus pyogenes 8306, read-out: MIC
Method in brief: as §10

[3] = tested on: Enterococcus faecalis (VRE) MB 726; assay: MIC agar dilution, VRE strain 28
Method: as §1, §2, §3, §4, §5, §6, §7, §8, §9

Candida albicans = assay: MIC agar dilution, micro-organism 19 (90028); conditions: Candida albicans 90028, read-out: MIC
Method in brief: as §10

Listeria monocytogenes = assay: MIC agar dilution, micro-organism 15 (11994); conditions: Listeria monocytogenes 11994, read-out: MIC
Method in brief: as §10

MRSA EMRSA 16 00036/95 = assay: MIC agar dilution, MRSA strain 46; conditions: Staphylococcus aureus
Method: as §1, §2, §3, §4, §5, §6, §7, §8, §9

Bacillus subtilis = assay: MIC agar dilution, micro-organism 18 (9372); conditions: Bacillus subtilis 9372, read-out: MIC
Method in brief: as §10

MRSA EMRSA 16 18200/95 = assay: MIC agar dilution, MRSA strain 48; conditions: Staphylococcus aureus
Method: as §1, §2, §3, §4, §5, §6, §7, §8, §9

[4] = tested on: Enterococcus faecium (VRE) NCTC 12952; assay: MIC agar dilution, VRE strain 30
Method: as §1, §2, §3, §4, §5, §6, §7, §8, §9

| SMILES | MIC ([1]; 22 hrs) | MIC ([1]; 48 hrs) | MIC (Providencia rettgeri; 22 hrs) | MIC (Providencia rettgeri; 48 hrs) | MIC (Enterococcus faecalis; 22 hrs) | MIC (Enterococcus faecalis; 48 hrs) | MIC (MRSA EMRSA 16 03732/95; 22 hrs) | MIC (MRSA EMRSA 16 03732/95; 48 hrs) | MIC ([2]; 22 hrs) | MIC ([2]; 48 hrs) | MIC ([3]; 22 hrs) | MIC ([3]; 48 hrs) | MIC (Candida albicans; 22 hrs) | MIC (Candida albicans; 48 hrs) | MIC (Listeria monocytogenes; 22 hrs) | MIC (Listeria monocytogenes; 48 hrs) | MIC (MRSA EMRSA 16 00036/95; 22 hrs) | MIC (MRSA EMRSA 16 00036/95; 48 hrs) | MIC (Bacillus subtilis; 22 hrs) | MIC (Bacillus subtilis; 48 hrs) | further results |
| --- | --- | --- | --- | --- | --- | --- | --- | --- | --- | --- | --- | --- | --- | --- | --- | --- | --- | --- | --- | --- | --- |
| CCCCCCCCCCCCOCCOCCOCCOCCOCCOCCOCCO [L7, Heptaethylene Glycol Monododecyl Ether] | 220 µM (≈ 109 µg/mL) | 220 µM (≈ 109 µg/mL) | > 880 µM | > 880 µM | 110 µM (≈ 54.4 µg/mL) | 110 µM (≈ 54.4 µg/mL) | > 440 µM | > 440 µM | > 880 µM | > 880 µM | > 880 µM | > 880 µM | > 880 µM | > 880 µM | 220 µM (≈ 109 µg/mL) | 220 µM (≈ 109 µg/mL) | 440 µM (≈ 218 µg/mL) | > 440 µM | 110 µM (≈ 54.4 µg/mL) | 110 µM (≈ 54.4 µg/mL) | MIC (Steptococcus pyogenes; 22 hrs): 110 µM (≈ 54.4 µg/mL); MIC (Steptococcus pyogenes; 48 hrs): 110 µM (≈ 54.4 µg/mL); MIC (MRSA EMRSA 16 18200/95; 22 hrs): 220 µM (≈ 109 µg/mL); MIC (MRSA EMRSA 16 18200/95; 48 hrs): > 440 µM; MIC ([4]; 22 hrs): > 880 µM; MIC ([4]; 48 hrs): > 880 µM |
| CCCCCCCCCCCCOCCOCCOCCOCCOCCOCCOCCOCCO [L8, Octaethylene Glycol Monododecyl Ether] | 440 µM (≈ 237 µg/mL) | 440 µM (≈ 237 µg/mL) | > 880 µM | > 880 µM | 110 µM (≈ 59.3 µg/mL) | 110 µM (≈ 59.3 µg/mL) | > 440 µM | > 440 µM | > 880 µM | > 880 µM | 880 µM (≈ 474 µg/mL) | > 880 µM | > 880 µM | > 880 µM | 440 µM (≈ 237 µg/mL) | > 880 µM | > 440 µM | > 440 µM | 110 µM (≈ 59.3 µg/mL) | 110 µM (≈ 59.3 µg/mL) | MIC (Steptococcus pyogenes; 22 h, 22 hrs): ≤ 50 µM; MIC (Steptococcus pyogenes; 48 h, 48 hrs): ≤ 50 µM; MIC (MRSA EMRSA 16 18200/95; 22 hrs): > 440 µM; MIC (MRSA EMRSA 16 18200/95; 48 hrs): > 440 µM; MIC ([4]; 22 hrs): > 880 µM; MIC ([4]; 48 hrs): > 880 µM |
